Test results from patent US20090117406A1, “CONCENTRATE FOR FILM PRESERVATION” (priority 2006, published 2009).

Tests used:
[1] = system: Alternaria alternata DSM 62010 and Ulocladium consortial DSM 6201; test: Fungicide trial with weathering on plaster test pieces (VdL guideline 06), fungus mix 1; assay type: cell-based; details: rating after 21 days 0 or 1, for mixtures order of ppm follows order of active agents
Experimental: (§1) The sample to be tested is plaster. The untreated sample is equipped with the cited biocides or single active agents in different concentrations. […] For preparing the samples the plaster is equipped with biocides and from that test pieces are formed. For that purpose for each test piece 7 g plaster are weighed in a small plastic mould and spread evenly. For complete drying the plaster test pieces are stored for three days at room temperature. The prepared test bodies are put in 100 ml tap water each for three days the water being exchanged daily. Then a 15 h phase of drying follows in a circulation air cabinet at 50° C. and 60 circles/min. After three days of equi libration at room temperature the test pieces are sterilised superficially and brought in the biological test. The superficial sterilisation is carried directly before putting them on the nutritive substratum by a exposure to UV radiation on both sides each for 10 minutes under a mercury medium pressure radiator. The evaluations for fungus are carried out on malt extract agar (for example by Fluka). For mix 1 Alternaria alternata DSM 62010 and Ulocladium consortial DSM 6201 is used. For mix 2 Aspergillus niger DSM 1988, Penicillium expansum DSM 1282 and Trichoderma viride DSM 63064 is used. These are used as about 14 days old cultures on inclined agar tubes for producing suspension. For that purpose to each tube 3 ml sterile Ringer's solution are added, and then washed away with a sterile os (this corresponds with a germination index of about 10^8 to 10^9 KBE/ml [KBE=(Kolonie bildende Einheiten) units forming colonies]). […] The nutritive substratum with the put-on test pieces is injected with one of the listed fungus mixtures and incubated at room temperature. After 7, 14 and 21 days the test pieces are evaluated with respect to the fungus growth according to the following rating: 00=sample surface without fouling, with inhibitory aureole around test piece 0=sample surface without fouling, without inhibitory aureole around test piece […] […]

[2] = system: Aspergillus niger DSM 1988, Penicillium expansum DSM 1282 and Trichoderma viride DSM 63064; test: Fungicide trial with weathering on plaster test pieces (VdL guideline 06), fungus mix 2; assay type: cell-based; details: rating after 21 days 0 or 1, for mixtures order of ppm follows order of active agents
Experimental: as §1

| SMILES | ppm a.i. in plaster dosed additionally (minimal ppm concentration as fungus growth is obstructed clearly) [1] [ppm] | ppm a.i. in plaster dosed additionally (minimal ppm concentration as fungus growth is obstructed clearly) [2] |
| --- | --- | --- |
| CCCCCCCCn1sccc1=O [OIT, 2-octyl-2H-isothiazole-3-one] | 200 | >500(#) ppm |
| N#Cc1c(Cl)c(Cl)c(Cl)c(C#N)c1Cl [CTL, 1,3-dicyano-2,4,5,6-tetrachlorbenzole] | 400 | 800 ppm |
| CCCC1COC(Cn2cncn2)(c2ccc(Cl)cc2Cl)O1 (stereo not drawn) [Propiconazol, 1-[[2-(2,4-dichlorphenyl)-4-propyl-1,3-dioxolane-2-yl]methyl] 1 H-1,2,4-triazol] | 2000 | >2000(#) ppm |
